Tests used:
A549 xenografts = experiment: A549 xenograft tumor growth; format: in vivo, mouse; settings: control shRNA A549 tumors, nude mice; erlotinib 100 mg/kg/d
Protocol: About two weeks later, mice would develop subcutaneous tumors. The mice were randomly divided into indicated groups.
Referring to FIG. 17B, a similar in vivo experiments were performed with A549 xenografts (shIFNAR1 clone #2).

IFNAR1 = experiment: Western blot for IFNAR1 expression; format: cell-based; settings: HCC827, PC9 0.1 µM; A549, H441 1 µM erlotinib
Protocol: Western blot and immunoprecipitation were performed according to standard protocols. Western blot results are representative of at least 3 independent experiments. EGFR (06-847) antibody was from EMD Millipore (Billerica, MA); p-EGFR (Tyr1068) (2236), p-TBK1 (Ser172) (5483), TBK1 (3504), IKKε (2905), IRF3 (11904), K63-Ub (12930), RIG-I (3743), STAT1 (9172), p-STAT1 (Tyr701) (9167), AhR (83200), LAMIN A/C (4777), STING (3337), p-STING (Ser366) (19781), PD1 (86163), PD-L1 (13684), PD-L2 (82723) and IκBα (4814) antibodies were from Cell Signaling Technology (Danvers, MA); IFNAR1 (sc-7391), IFNGR1 (sc-12755), TNFR1 (sc-8346), and β-Actin (sc-47778) were from Santa Cruz Biotechnology (Dallas, TX); TRIM32 (Mab6515) antibody was from R&D (Minneapolis, MN); p-IRF3 (Ser386) (ab76493) antibody was from Abcam (Cambridge, MA).
Cell lysates were collected for detecting IFNAR1 expression by Western blot.

KRas G12D lung tumors = experiment: KRAS LSL-G12D transgenic lung tumor model, MRI; format: in vivo; settings: oral erlotinib 100 mg/kg/d, i.p. anti-mouse IFNAR1 antibody 3 mg/kg/d, 28 continuous days
Protocol: LSL-Kras G12D mice (008179): were purchased from Jackson laboratories and the colony was expanded by breeding heterozygous LSL-Kras G12D mice with wildtype mice. Genotyping was performed per the protocol on Jackson website. Lung tumors were induced in mice carrying the LSL-Kras G12D allele with intranasal administration of 2.5 x 10^8 PFU Adeno-CMV-Cre (University of Iowa). Treatments were initiated once the tumors were confirmed by with Magnetic resonance imaging (MRI) at about 10-12 weeks after tumor induction.
MRI Imaging was conducted at UT Southwestern Mouse MRI Core, Advanced Imaging Research Center, using a 7T small animal MRI scanner (Bruker, Rheinstetten, Germany) equipped with a 40 mm quadrature Radiofrequency (RF) coil (ExtendMR LLC, Milpitas, CA). […] Finally, higher resolution gradient echo images were recorded on the transverse plane, with the major parameters as follows: The repetition time (TR) = 200 ms (Note: the actual TR is changing according to ECG R-R interval, in range of 200 ms to 240 ms), the echo time (TE) = 1.966 ms, the flip angle (FA) = 45°, the number of average = 12, the field of view (FOV) = 32 x 32 mm^2, the matrix size = 256 x 256, the slice number = 17-21 (changed upon the mouse lung size), and the slice thickness = 1 mm without any gap. […]
Bi-weekly MRI scanning was used to monitor tumor growth. Tumor sizes were calculated by ImageJ. […]

C#Cc1cccc(Nc2ncnc3cc(OCCOC)c(OCCOC)cc23)c1 [erlotinib]
tumor growth (A549 xenografts): failed to inhibit the growth of control tumors
level of type I IFN receptor (IFNAR1): unchanged
tumor growth by MRI (KRas G12D lung tumors): robust tumor growth

— patent publication US20230119324A1, “EGFR INHIBITION TRIGGERS AN ADAPTIVE RESPONSE BY CO-OPTING ANTIVIRAL SIGNALING PATHWAYS IN LUNG CANCER” (The United States Government as represented by the …, priority 2020, published 2023)
